Results: patent publication US20230339952A1, “MACROCYCLIC HETEROCYCLES AND USES THEREOF” (Kumquat Biosciences Inc., priority 2022, published 2023)
pIC50: −log10 of the molar value. Like-named read-outs stand apart in the source and are kept apart here.

Tests used:
SOS1 = SOS1 (Homo sapiens (Human), UniProt Q07889); experiment: Ras-SOS interaction assay (HTRF), K-Ras G13D utilized; format: binding; settings: K-Ras G13D
[1] = tested on: NCI-H1975 (ATCC CRL-5908) cell line comprising an EGFR T790M L858R double mutation; experiment: EGFR-SOS cellular inhibition assay (CellTiter-Glo cell proliferation); format: cell-based; settings: Homo sapiens, 120 h; NCI-H1975 cell proliferation, approximately 5 days; read-out: H1975 IC50
Protocol: A CellTiter-Glo (CTG) luminescent based assay (Promega) is used to assess growth of the cells, as a measurement of the ability of the compounds herein to inhibit EGFR signaling in the cells. […] The day after plating, cells are treated with a dilution series (e.g., a 9 point 3-fold dilution series) of the compounds herein (e.g., approximately 125 μL final volume per well).

SOS1, sequence (Q07889 564-1049): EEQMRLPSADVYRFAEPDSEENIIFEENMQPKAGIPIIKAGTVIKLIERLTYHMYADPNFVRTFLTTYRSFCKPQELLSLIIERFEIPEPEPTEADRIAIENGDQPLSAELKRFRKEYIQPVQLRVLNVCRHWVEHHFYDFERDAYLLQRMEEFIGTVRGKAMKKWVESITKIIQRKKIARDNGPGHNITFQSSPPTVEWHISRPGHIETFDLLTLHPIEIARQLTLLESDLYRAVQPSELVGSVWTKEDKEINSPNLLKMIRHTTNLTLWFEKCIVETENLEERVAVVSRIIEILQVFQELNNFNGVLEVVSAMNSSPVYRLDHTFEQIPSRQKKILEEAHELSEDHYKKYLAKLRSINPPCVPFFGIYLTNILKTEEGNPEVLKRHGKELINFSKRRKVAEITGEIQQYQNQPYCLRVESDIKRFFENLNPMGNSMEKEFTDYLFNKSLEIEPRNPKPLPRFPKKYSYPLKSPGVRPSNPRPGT

Row | SMILES | pIC50 (SOS1; read-out: SOS1 IC50) | pIC50 [1] | pIC50 (SOS1; read-out: IC50 value against SOS1)
1 | Cc1nc2c3cc(C4(C#N)CC4)c(=O)n(c3n1)CCCCC/C=C\COCC(F)(F)c1cccc(c1F)[C@@H](C)N2 [Compound 109, 1-((3R,Z)-4^2,5,5-trifluoro-1^2,3-dimethyl-1^7-oxo-1^7,1^8-dihydro-7-oxa-2-aza-1(4,8)-pyrido[2,3-d]pyrimidina-4(1,3)-benzenacyclopentadecaphan-9-en-1^6-yl)cyclopropane-1-carbonitrile] | > 7.00 | > 6.00 | 
2 | C[C@H]1Nc2ncnc3c2cc(C2CCS(=O)(=O)CC2)c(=O)n3CCCCCC(C)(O)CN2CCC(CC2)C(F)(F)c2cccc1c2 (stereo partly drawn) [Compound 110, (4R)-6^6-(1,1-dioxidotetrahydro-2H-thiopyran-4-yl)-2,2-difluoro-12-hydroxy-4,12-dimethyl-6^7,6^8-dihydro-5-aza-6(4,8)-pyrido[2,3-d]pyrimidina-1(4,1)-piperidina-3(1,3)-benzenacyclotridecaphan-6^7-one] | > 7.00 | > 6.00 | 
3 | C[C@H]1Nc2ncnc3c2cc(C2CCS(=O)(=O)CC2)c(=O)n3CCCCCCCN2C3CCC2CC(C3)C(F)(F)c2cccc1c2F [Compound 113, (11S,15R,4R)-6^6-(1,1-dioxidotetrahydro-2H-thiopyran-4-yl)-32,2,2-trifluoro-4-methyl-6^7,6^8-dihydro-1^8,5-diaza-6(4,8)-pyrido[2,3-d]pyrimidina-1(3,8)-bicyclo[3.2.1]octana-3(1,3)-benzenacyclotridecaphan-6^7-one] | > 7.00 | > 6.00 | 
4 | C[C@H]1Nc2ncnc3c2cc(C2CCS(=O)(=O)CC2)c(=O)n3CCCCCC(C#N)CN2CCC(CC2)C(F)(F)c2cccc1c2 (stereo partly drawn) [Compound 114, (4R)-6^6-(1,1-dioxidotetrahydro-2H-thiopyran-4-yl)-2,2-difluoro-4-methyl-6^7-oxo-6^7,6^8-dihydro-5-aza-6(4,8)-pyrido[2,3-d]pyrimidina-1(4,1)-piperidina-3(1,3)-benzenacyclotridecaphane-12-carbonitrile] | > 7.00 | > 6.00 | 
5 | C[C@H]1Nc2ncnc3c2cc(C2(C#N)CCS(=O)(=O)CC2)c(=O)n3CCCCCCCN2CCC(CC2)C(F)(F)c2cccc1c2 [Compound 116, 4-((4R)-2,2-difluoro-4-methyl-6^7-oxo-6^7,6^8-dihydro-5-aza-6(4,8)-pyrido[2,3-d]pyrimidina-1(4,1)-piperidina-3(1,3)-benzenacyclotridecaphane-6^6-yl)tetrahydro-2H-thiopyran-4-carbonitrile 1,1-dioxide] | > 7.00 | > 6.00 | 
6 | C[C@H]1Nc2ncnc3c2cc(C2CCS(=O)(=O)CC2)c(=O)n3CCCCNC(=O)CN2CCC(CC2)C(F)(F)c2cccc1c2 [Compound 118, (4R)-6^6-(1,1-dioxidotetrahydro-2H-thiopyran-4-yl)-2,2-difluoro-4-methyl-6^7,6^8-dihydro-5,11-diaza-6(4,8)-pyrido[2,3-d]pyrimidina-1(4,1)-piperidina-3(1,3)-benzenacyclotridecaphane-6^7,12-dione] | > 7.00 | > 6.00 | 
7 | C[C@H]1Nc2ncnc3c2cc(N2CCS(=O)(=O)CC2)c(=O)n3CCCCCN2CCC(CC2)CCC(F)(F)c2cccc1c2F [Compound 119, (3R)-1^6-(1,1-dioxidothiomorpholino)-4^2,5,5-trifluoro-3-methyl-1^7,1^8-dihydro-2-aza-1(4,8)-pyrido[2,3-d]pyrimidina-8(4,1)-piperidina-4(1,3)-benzenacyclotridecaphan-1^7-one] | > 7.00 | > 6.00 | 
8 | C[C@H]1Nc2ncnc3nc(c(C4(C#N)CC4)cc23)OCCCCCCN2CCC(CC2)C(F)(F)c2cccc1c2 [Compound 121, (R)-1-(2,2-difluoro-4-methyl-7-oxa-5-aza-6(4,7)-pyrido[2,3-d]pyrimidina-1(4,1)-piperidina-3(1,3)-benzenacyclotridecaphane-6^6-yl)cyclopropane-1-carbonitrile] | > 7.00 | > 6.00 | 
9 | CC(C)N1CCC(c2cc3c4ncnc3n(c2=O)CCOCCCCN2CCC(CC2)CC(F)(F)c2cccc(c2)[C@@H](C)N4)CC1 [Compound 122, (3R)-5,5-difluoro-1^6-(1-isopropylpiperidin-4-yl)-3-methyl-1^7,1^8-dihydro-12-oxa-2-aza-1(4,8)-pyrido[2,3-d]pyrimidina-7(4,1)-piperidina-4(1,3)-benzenacyclotetradecaphan-1^7-one] | > 7.00 | > 6.00 | 
10 | CC(C)N1CCN(c2cc3c4ncnc3n(c2=O)CCCCCCCN2CCC(CC2)C(F)(F)c2cccc(c2)[C@@H](C)N4)CC1 [Compound 123, (4R)-2,2-difluoro-6^6-(4-isopropylpiperazin-1-yl)-4-methyl-6^7,6^8-dihydro-5-aza-6(4,8)-pyrido[2,3-d]pyrimidina-1(4,1)-piperidina-3(1,3)-benzenacyclotridecaphan-6^7-one] | > 7.00 | > 6.00 | 
11 | C[C@H]1Nc2ncnc3c2cc(C2(C#N)CC2)c(=O)n3CCCCNC(=O)CN2CCC(CC2)C(F)(F)c2cccc1c2 [Compound 124, 1-((4R)-2,2-difluoro-4-methyl-6^7,12-dioxo-6^7,6^8-dihydro-5,11-diaza-6(4,8)-pyrido[2,3-d]pyrimidina-1(4,1)-piperidina-3(1,3)-benzenacyclotridecaphane-6^6-yl)cyclopropane-1-carbonitrile] | > 7.00 | > 6.00 | 
12 | C[C@H]1Nc2ncnc3c2cc(C2CCS(=O)(=O)CC2)c(=O)n3CCCCCCCN2CCC(CC2)C(F)(F)c2cccc1c2F [Compound 125, (4R)-6^6-(1,1-dioxidotetrahydro-2H-thiopyran-4-yl)-3^2,2,2-trifluoro-4-methyl-6^7,6^8-dihydro-5-aza-6(4,8)-pyrido[2,3-d]pyrimidina-1(4,1)-piperidina-3(1,3)-benzenacyclotridecaphan-6^7-one] | > 7.00 | > 6.00 | 
13 | C[C@H]1Nc2ncnc3c2cc(C2(C#N)CC2)c(=O)n3CCCCn2cc(nn2)CN2CCC(CC2)C(F)(F)c2cccc1c2F [Compound 126, 1-((6R,Z)-5^2,4,4-trifluoro-6-methyl-8^7-oxo-8^7,8^8-dihydro-1^1H-7-aza-8(4,8)-pyrido[2,3-d]pyrimidina-3(1,4)-piperidina-1(4,1)-triazola-5(1,3)-benzenacyclododecaphane-8^6-yl)cyclopropane-1-carbonitrile] | > 7.00 | > 6.00 | 
14 | C[C@H]1Nc2ncnc3c2cc(C2(C#N)CCS(=O)(=O)CC2)c(=O)n3CCCOCCCCN2CCC(CC2)C(F)(F)c2cccc1c2 [Compound 127, 4-((4R)-2,2-difluoro-4-methyl-6^7-oxo-6^7,6^8-dihydro-10-oxa-5-aza-6(4,8)-pyrido[2,3-d]pyrimidina-1(4,1)-piperidina-3(1,3)-benzenacyclotetradecaphane-6^6-yl)tetrahydro-2H-thiopyran-4-carbonitrile 1,1-dioxide] | > 7.00 | > 6.00 | 
15 | C[C@H]1Nc2ncnc3c2cc(C2(C#N)CC2)c(=O)n3CC(=O)N(C)CCCCN2CCC(CC2)C(F)(F)c2cccc1c2F [Compound 128, 1-((4R)-3^2,2,2-trifluoro-4,9-dimethyl-6^7,8-dioxo-6^7, 6^8-dihydro-5,9-diaza-6(4,8)-pyrido[2,3-d]pyrimidina-1(4,1)-piperidina-3(1,3)-benzenacyclotridecaphane-6^6-yl)cyclopropane-1-carbonitrile] | > 7.00 | > 6.00 | 
16 | Cc1nc2c3cc(C4(C#N)CC4)c(=O)n(c3n1)CCCCCCOCC(F)(F)c1cccc(c1F)[C@@H](C)N2 [Compound 130, 1-((3R)-4^2,5,5-trifluoro-1^2,3-dimethyl-1^7-oxo-1^7,1^8-dihydro-7-oxa-2-aza-1(4,8)-pyrido[2,3-d]pyrimidina-4(1,3)-benzenacyclotridecaphane-1^6-yl)cyclopropane-1-carbonitrile] | 5.30 to 7.00 | 5.00 to 6.00 | 
17 | C[C@H]1Nc2ncnc3c2cc(C2(C#N)CC2)c(=O)n3CCCCCC/C=C/CN2CCC(CC2)C(F)(F)c2cccc1c2 [Compound 131, 1-((4R,E)-2,2-difluoro-4-methyl-6^7-oxo-6^7,6^8-dihydro-5-aza-6(4,8)-pyrido[2,3-d]pyrimidina-1(4,1)-piperidina-3(1,3)-benzenacyclopentadecaphan-13-en-6^6-yl)cyclopropane-1-carbonitrile] | > 7.00 | > 6.00 | 
18 | C[C@H]1Nc2ncnc3c2cc(C2(C#N)CC2)c(=O)n3CC(=O)NCCCCN2CCC(CC2)C(F)(F)c2cccc1c2 [Compound 132, 1-((4R)-2,2-difluoro-4-methyl-6^7,8-dioxo-6^7,6^8-dihydro-5,9-diaza-6(4,8)-pyrido[2,3-d]pyrimidina-1(4,1)-piperidina-3(1,3)-benzenacyclotridecaphane-6^6-yl)cyclopropane-1-carbonitrile] | > 7.00 | > 6.00 | 
19 | CC(C)N1CCN(c2cc3c4ncnc3n(c2=O)CCOCCCCN2CCC(CC2)CC(F)(F)c2cccc(c2F)[C@@H](C)N4)CC1 [Compound 135, (3R)-4^2,5,5-trifluoro-1^6-(4-isopropylpiperazin-1-yl)-3-methyl-1^7,1^8-dihydro-12-oxa-2-aza-1(4,8)-pyrido[2,3-d]pyrimidina-7(4,1)-piperidina-4(1,3)-benzenacyclotetradecaphan-1^7-one] | > 7.00 | > 6.00 | 
20 | C[C@H]1Nc2ncnc3nc(c(C4(C#N)CC4)cc23)OCCCCCCCN2CCC(CC2)C(F)(F)c2cccc1c2 [Compound 137, (R)-1-(2,2-difluoro-4-methyl-7-oxa-5-aza-6(4,7)-pyrido[2,3-d]pyrimidina-1(4,1)-piperidina-3(1,3)-benzenacyclotetradecaphane-6^6-yl)cyclopropane-1-carbonitrile] | > 7.00 | > 6.00 | 
21 | COc1cc2nc(C)nc3c2cc1OCCOCCOCCOCCOCCNCc1ccc(F)cc1C1=CC=C(S1)C(C)N3 (stereo not shown) [Compound 138, 1^5-fluoro-5^7-methoxy-5^2,3-dimethyl-6,9,12,15,18-pentaoxa-4,21-diaza-5(4,6)-quinazolina-2(2,5)-thiophena-1(1,2)-benzenacyclodocosaphane] | > 7.00 | > 6.00 | > 7.30
